In patent US20240109900A1, “AZABICYCLIC SHP2 INHIBITORS” (IRBM S.P.A., priority 2021, published 2024):
Where two headings read alike, the source gives them in different places.

What was measured:
[1] = target: SHP-2 enzyme (Met1-Leu525) (Homo sapiens (Human), UniProt Q06124); assay: SHP2 inhibition enzymatic assay; format: biochemical; settings: 75 μM DiFMUP substrate
Procedure: The assay was performed as described in YP Chen et al, Nature (535)2016. Assay volume of 20 μL/well was assembled in 384 well black polystyrene low-binding microplates (Greiner), using the following buffer: 60 mM HEPES pH 7.2, 75 mM NaCl, 75 mM KCl, 1 mM EDTA pH 8, 0.05% tween-20, 5 mM DTT. The SHP-2 enzyme (synthetized by Origene, Met1-Leu525, cat #TP750155) was used at a final concentration of 0.5 nM. The enzyme was activated by 500 nM IRS1 peptide (sequence: H2N-LN(pY)IDLDLV(dPEG8)LST(pY)ASINFQK-amide SEQ ID No. 1) and incubated with 75 μM DiFMUP (Sigma) as substrate.
Briefly, DMSO serially diluted testing compounds were transferred to the bottom of the assay plate. SHP2 was then added together with the IRS1 peptide. 30 min post incubation, the DiFMUP substrate was added to the reaction and incubated 30 min at room temperature. Finally 5 μL of 160 μM bpV (Potassium bisperoxo[1,10-phenanthroline]oxovanadate [V], Sigma) were added to stop and quench the reaction. The fluorescence was detected by a microplate reader (Envision, PerkinElmer) according to the DiFMUP excitation and emission wavelength. The lower the fluorescence the higher the SHP2 inhibition. […] The percentage inhibition is fitted against the compound dilutions with a four-parameter logistic regression. The inflection point (i.e. the concentration at which half-maximal inhibition is achieved) is the IC50.

[2] = tested on: ERK phosphorylation in KYSE-520 cells; assay: Phospho-ERK cellular assay; format: cell-based; settings: read-out: PERK IC50
Procedure: ERK phosphorylation was detected using the “Advanced phospho-ERK1/2 (Thr202/Tyr204)” TR-FRET kit (Cisbio, Cat #64AERPEG/H), following the manufacturer reagents and instructions.
Briefly, 20.000/well KYSE-520 cells (DSMZ ACC 371) were plated in 6 μL RPMI-1640 (Invitrogen) growth medium, into 384 white low-volume high base TC microplates (Greiner). After an overnight incubation, cells were treated with DMSO serial diluted compounds and incubated for 2 h at 37° C. After incubation, 2 μL/well of 4×Lysis Buffer (Cisbio 64KL1FDF), were added and incubated with cells for 30 min on gentle shaking. Finally, lysates were added with 2 μL/well of Eu cryptate (donor) and D2 (acceptor) conjugated antibodies (as provided by the Cisbio kit #64AERPEG/H) diluted 1:100 in Detection Buffer (as provided by the Cisbio kit #64AERPEG/H). Plates were then sealed and incubated at room temperature in the dark. After an overnight incubation, the TR-FRET signal was detected on a suitable reader (Envision, PerkinElmer). The lower the TR-FRET signal the higher the higher the SHP2 inhibition in cells.
The activity of each compound dilution was calculated as percentage between vehicle DMSO treated cells and no cells, 0% inhibition and 100% inhibition respectively. The percentage activity is fitted against the compound dilutions with a four-parameter logistic regression. The inflection point (i.e. the concentration at which half-maximal inhibition is achieved) is the IC50.

[3] = 0.5 nM SHP-2 activated by 500 nM IRS1 peptide, read-out: SHP2wt-IC50
[4] = Homo sapiens, KYSE-520, 2 h, KYSE-520 cells, 2 h at 37° C., phospho-ERK1/2 (Thr202/Tyr204) TR-FRET

SHP-2 enzyme (Met1-Leu525), sequence (Q06124 1-525): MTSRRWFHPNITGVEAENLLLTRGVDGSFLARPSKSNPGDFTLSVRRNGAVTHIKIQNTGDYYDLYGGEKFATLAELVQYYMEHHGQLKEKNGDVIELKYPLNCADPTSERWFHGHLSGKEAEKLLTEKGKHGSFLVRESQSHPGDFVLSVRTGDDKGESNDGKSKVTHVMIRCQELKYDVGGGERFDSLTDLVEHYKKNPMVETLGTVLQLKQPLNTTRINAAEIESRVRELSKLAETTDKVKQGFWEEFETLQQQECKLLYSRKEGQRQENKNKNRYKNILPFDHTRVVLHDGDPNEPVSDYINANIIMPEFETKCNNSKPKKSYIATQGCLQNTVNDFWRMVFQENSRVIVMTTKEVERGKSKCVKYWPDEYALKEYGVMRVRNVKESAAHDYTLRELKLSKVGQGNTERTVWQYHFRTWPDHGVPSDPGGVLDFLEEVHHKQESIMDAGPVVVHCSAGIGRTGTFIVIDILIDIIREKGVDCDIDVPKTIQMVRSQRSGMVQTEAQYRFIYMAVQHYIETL

| IC50 [1, 3] [nM] | IC50 [2, 4] [nM] | IC50 ([2]; KYSE-520 cells, 2 h at 37° C., phospho-ERK1/2 (Thr202/Tyr204) TR-FRET) [nM] | SMILES | IC50 ([2]; Homo sapiens, KYSE-520, 2 h) [nM] | IC50 ([1]; SHP2wt-IC50, 0.5 nM SHP-2 activated by 500 nM IRS1 peptide) [nM] |
| --- | --- | --- | --- | --- | --- |
| < 500 | < 1000 | – | CN(C)c1nccc(-c2n[nH]c3nc(N4CC[C@@H]5[C@H](C4)[C@@]5(CN)c4ccccc4F)cnc23)c1Cl [Example 190, 4-(6-((1S,6R,7R)-7-(aminomethyl)-7-(2-fluorophenyl)-3-azabicyclo[4.1.0]heptan-3-yl)-1H-pyrazolo[3,4-b]pyrazin-3-yl)-3-chloro-N,N-dimethylpyridin-2-amine] | – | – |
| < 500 | < 1000 | – | Cc1cc(C2(CN)C3CCN(c4cnc5c(-c6ccc7nn(C)cc7c6Cl)n[nH]c5n4)CC32)no1 (centres unmarked) [Example 24, (3-(3-(4-chloro-2-methyl-2H-indazol-5-yl)-1H-pyrazolo[3,4-b]pyrazin-6-yl)-7-(5-methylisoxazol-3-yl)-3-azabicyclo[4.1.0]heptan-7-yl)methanamine] | – | – |
| < 500 | < 1000 | – | Cc1nccc(Sc2cnc(N3CC[C@@H]4[C@H](C3)[C@@]4(CN)c3cc(F)ccc3F)cn2)c1F [Example 424, ((1S,6R,7R)-7-(2,5-difluorophenyl)-3-(5-((3-fluoro-2-methylpyridin-4-yl)thio)pyrazin-2-yl)-3-azabicyclo[4.1.0]heptan-7-yl)methanamine] | – | – |
| < 500 | < 1000 | – | Cn1cc2c(Cl)c(-c3n[nH]c4nc(N5C[C@@H]6[C@H](C5)[C@@]6(CN)c5ccccc5)cnc34)ccc2n1 [Example 453, ((1R,5S,6s)-3-(3-(4-chloro-2-methyl-2H-indazol-5-yl)-1H-pyrazolo[3,4-b]pyrazin-6-yl)-6-phenyl-3-azabicyclo[3.1.0]hexan-6-yl)methanamine] | – | – |
| < 500 | < 1000 | – | NC[C@]1(c2ccccc2F)[C@@H]2CCN(c3cnc4c(-c5cc(F)c(O)cc5F)n[nH]c4n3)C[C@@H]21 [Example 354, 4-(6-((1S,6R,7R)-7-(aminomethyl)-7-(2-fluorophenyl)-3-azabicyclo[4.1.0]heptan-3-yl)-1H-pyrazolo[3,4-b]pyrazin-3-yl)-2,5-difluorophenol] | – | – |
| < 500 | 1000 to 5000 | – | Cc1cc(C2(CN)C3CCN(c4nc5[nH]nc(Sc6ccnc(N)c6Cl)c5nc4CO)CC32)no1 (centres unmarked) [Example 57, (3-((2-amino-3-chloropyridin-4-yl)thio)-6-(7-(aminomethyl)-7-(5-methylisoxazol-3-yl)-3-azabicyclo[4.1.0]heptan-3-yl)-1H-pyrazolo[3,4-b]pyrazin-5-yl)methanol] | – | – |
| < 500 | < 1000 | – | NC[C@]1(c2ccccc2F)[C@@H]2CCN(c3cnc4c(-c5cccc(Br)c5Cl)n[nH]c4n3)C[C@@H]21 [Example 162, ((1S,6R,7R)-3-(3-(3-bromo-2-chlorophenyl)-1H-pyrazolo[3,4-b]pyrazin-6-yl)-7-(2-fluorophenyl)-3-azabicyclo[4.1.0]heptan-7-yl)methanamine] | – | – |
| < 500 | < 1000 | – | NC[C@]1(c2ccccc2F)[C@@H]2CCN(c3cnc4c(-c5ccnc(-c6cnco6)c5Cl)n[nH]c4n3)C[C@@H]21 [Example 263, ((1S,6R,7R)-3-(3-(3-chloro-2-(oxazol-5-yl)pyridin-4-yl)-1H-pyrazolo[3,4-b]pyrazin-6-yl)-7-(2-fluorophenyl)-3-azabicyclo[4.1.0]heptan-7-yl)methanamine] | – | – |
| < 500 | < 1000 | – | NC[C@]1(c2ccccc2F)[C@@H]2CCN(c3cnc(Sc4ccnc(N)c4Cl)cn3)C[C@@H]21 [Example 401, 4-((5-((1S,6R,7R)-7-(aminomethyl)-7-(2-fluorophenyl)-3-azabicyclo[4.1.0]heptan-3-yl)pyrazin-2-yl)thio)-3-chloropyridin-2-amine] | – | – |
| < 500 | < 1000 | – | Cn1cc2c(Cl)c(-c3n[nH]c4nc(N5CCC6C(C5)C6(CN)c5cc(C6CC6)on5)cnc34)ccc2n1 (centres unmarked) [Example 48, (3-(3-(4-chloro-2-methyl-2H-indazol-5-yl)-1H-pyrazolo[3,4-b]pyrazin-6-yl)-7-(5-cyclopropylisoxazol-3-yl)-3-azabicyclo[4.1.0]heptan-7-yl)methanamine] | – | – |
| < 500 | < 1000 | – | Cc1csc([C@@]2(CN)[C@@H]3CN(c4cnc(Sc5ccnc(N)c5Cl)cn4)C[C@@H]32)n1 [Example 498, 4-((5-((1R,5S,6r)-6-(aminomethyl)-6-(4-methylthiazol-2-yl)-3-azabicyclo[3.1.0]hexan-3-yl)pyrazin-2-yl)thio)-3-chloropyridin-2-amine] | – | – |
| < 500 | < 1000 | – | Cn1cc2c(Cl)c(Sc3cnc(N4CC[C@@H]5[C@H](C4)[C@@]5(CN)c4ccccc4F)cn3)ccc2n1 [Example 427, ((1S,6R,7R)-3-(5-((4-chloro-2-methyl-2H-indazol-5-yl)thio)pyrazin-2-yl)-7-(2-fluorophenyl)-3-azabicyclo[4.1.0]heptan-7-yl)methanamine] | – | – |
| < 500 | < 1000 | – | NC[C@]1(c2ccccc2F)[C@@H]2CCN(c3cnc4c(-c5ccc6c(c5Cl)CC(=O)N6)n[nH]c4n3)C[C@@H]21 [Example 216, 5-(6-((1S,6R,7R)-7-(aminomethyl)-7-(2-fluorophenyl)-3-azabicyclo[4.1.0]heptan-3-yl)-1H-pyrazolo[3,4-b]pyrazin-3-yl)-4-chloroindolin-2-one] | – | – |
| < 500 | – | < 1000 | Cc1csc([C@@]2(CN)[C@@H]3CN(c4cnc5c(-c6ccnc7c(F)cccc67)n[nH]c5n4)C[C@@H]32)n1 [Example 459] | – | – |
| < 500 | < 1000 | – | NC[C@]1(c2ccccc2F)[C@@H]2CCN(c3cnc4c(-c5ccc6nn(C7COC7)cc6c5Cl)n[nH]c4n3)C[C@@H]21 [Example 229, ((1S,6R,7R)-3-(3-(4-chloro-2-(oxetan-3-yl)-2H-indazol-5-yl)-1H-pyrazolo[3,4-b]pyrazin-6-yl)-7-(2-fluorophenyl)-3-azabicyclo[4.1.0]heptan-7-yl)methanamine] | – | – |
| < 500 | < 1000 | – | Cc1cc([C@@]2(CN)[C@@H]3CCN(c4cnc5c(-c6cccc7c6C(F)(F)C(=O)N7C)n[nH]c5n4)C[C@@H]32)no1 [Example 51, 4-(6-((1S,6R,7S)-7-(aminomethyl)-7-(5-methylisoxazol-3-yl)-3-azabicyclo[4.1.0]heptan-3-yl)-1H-pyrazolo[3,4-b]pyrazin-3-yl)-3,3-difluoro-1-methylindolin-2-one] | – | – |
| < 500 | < 1000 | – | COCc1cc(C2(CN)C3CCN(c4cnc5c(-c6ccc7nn(C)cc7c6Cl)n[nH]c5n4)CC32)no1 (centres unmarked) [Example 47, (3-(3-(4-chloro-2-methyl-2H-indazol-5-yl)-1H-pyrazolo[3,4-b]pyrazin-6-yl)-7-(5-(methoxymethyl)isoxazol-3-yl)-3-azabicyclo[4.1.0]heptan-7-yl)methanamine] | – | – |
| – | – | – | Cc1csc([C@@]2(CN)[C@@H]3CCN(c4cnc5c(-c6ccc(OS(=O)(=O)F)c7ncccc67)n[nH]c5n4)C[C@@H]32)n1 [Example 448, 5-(6-((1S,6R,7S)-7-(aminomethyl)-7-(4-methylthiazol-2-yl)-3-azabicyclo[4.1.0]heptan-3-yl)-1H-pyrazolo[3,4-b]pyrazin-3-yl)quinolin-8-yl sulfurofluoridate] | < 1000 | < 500 |

| SMILES | IC50 [1, 3] [nM] | IC50 [2, 4] [nM] | IC50 ([2]; KYSE-520 cells, 2 h at 37° C., phospho-ERK1/2 (Thr202/Tyr204) TR-FRET) [nM] | IC50 ([2]; Homo sapiens, KYSE-520, 2 h) [nM] | IC50 ([1]; SHP2wt-IC50, 0.5 nM SHP-2 activated by 500 nM IRS1 peptide) [nM] |
| --- | --- | --- | --- | --- | --- |
| NC[C@]1(c2ccccc2F)[C@@H]2CCN(c3cnc4c(-c5ccc(S(=O)(=O)F)c6ncccc56)n[nH]c4n3)C[C@@H]21 [Example 508, 5-(6-((1S,6R,7R)-7-(aminomethyl)-7-(2-fluorophenyl)-3-azabicyclo[4.1.0]heptan-3-yl)-1H-pyrazolo[3,4-b]pyrazin-3-yl)quinoline-8-sulfonyl fluoride] | < 500 | – | – | < 1000 | – |
